Test results taken from patent US20190048052A1, “ANTI-MICROBIAL PEPTIDES AND COATINGS” (Board of Regents of the University of Nebraska, priority 2016, published 2019).
≈ marks a conversion by molar mass, not a printed value. Like-named read-outs stand apart in the source and are kept apart here. Non-standard residues stand in square brackets, D forms with d. Residues, ends and D or L forms follow the SMILES beside them.

Columns and labels:
S. aureus USA300 [1] = type: cell-based, Staphylococcus aureus
Experimental: (§1) The bacterial strains used here included Gram-positive bacteria Staphylococcus aureus USA300 LAC, Staphylococcus epidermidis 1457, Bacillus subtilis 168, and Gram-negative Escherichia coli K12. Clinical strains of S. aureus, including Mu50, UAMS-1 and Newman, were also evaluated.
(§2) The antimicrobial activity of peptides was evaluated using a standard broth microdilution protocol (Wang, G. (2008) J. Biol. Chem., 283:32637-32643). In brief, exponential phase bacteria at 10^6 CFU were incubated with serially diluted peptides overnight for ˜20 hours at 37° C. The plates were read on a ChroMate® 4300 Microplate Reader at 630 nm (GMI, Ramsey, Minn.). […] In addition, the effects of human serum (up to 10%), pH (6.8, 7.4 and 8.0) and 150 mM sodium chloride (NaCl) on MICs against S. aureus USA300 were also evaluated (Mishra et al. (2015) RSC Advances 5:59758-59769).

S. aureus Newman = type: cell-based, Staphylococcus aureus
Experimental: as §1, §2

S. aureus Mu50 = type: cell-based, Staphylococcus aureus
Experimental: as §1, §2

S. aureus UAMS-1 = type: cell-based, Staphylococcus aureus
Experimental: as §1, §2

Hemolytic assay = type: cell-based; details: red blood cells, hemolysis
Experimental: Hemolytic analysis of selected peptides was performed using an established protocol (Mishra et al. (2015) RSC Advances 5:59758-59769). Briefly, human blood cells (UNMC Blood Bank) were washed three times with phosphate buffer saline (PBS) and diluted to a 2% solution. After peptide treatment, incubation at 37° C. for one hour, and centrifugation at 13,000 rpm, aliquots of the supernatant were transferred to a fresh 96-well microplate. To assess peptide cytotoxicity, the amount of hemoglobin released was measured at 545 nm. The percent lysis was calculated by assuming 100% release when human blood cells were treated with 1% TRITON™ X-100, and 0% release when incubated with PBS buffer. The hemolytic assays using chicken, bovine, and porcine blood cells (Lampire Biological Laboratories, Inc.) were performed in the same manner.

S. epidermidis 1457 = type: cell-based, Staphylococcus epidermidis
Experimental: as §1, §2

C. tropicalis ATCC 13803 = type: cell-based, Candida tropicalis; details: ATCC 13803, 48 h
Experimental: (§3) Fungal strains used in this study include Candida albicans ATCC 10231, C. glabrata ATCC 2001 and C. tropicalis ATCC 13803. The fungi were grown in Remel Dex broth (Thermo Fisher Scientific, KS). Antifungal assays were conducted essentially as described for antibacterial assays above, except for a higher starting density at an OD600 0.02 and a longer incubation time of ˜48 hours prior to microplate reading (Mishra et al. (2015) RSC Advances 5:59758-59769).

B. subtilis 168 = type: cell-based, Bacillus subtilis
Experimental: as §1, §2

[2] = system: Candida albicans ATCC 10231; type: cell-based; details: ATCC 10231, 48 h
Experimental: as §3

S. aureus USA300 [3] = experiment: Propidium iodide membrane permeation; type: cell-based, Staphylococcus aureus
Experimental: Fluorescence spectroscopy was also used to follow bacterial killing. In brief, a serially diluted 10× peptide (10 μL) was made in 96-well coming COSTAR microtiter plates. Propidium iodide (2 μL) was added at 50 μM to each well which was finally incubated with S. aureus USA300 bacteria (88 μL at a final OD600 ˜0.1) with continuous shaking at 100 rpm, 37° C. in a FLUOstar® Omega (BMG LABTECH Inc, NC) microplate reader. The plates were read every 5 minutes for a total duration of 2 hours with excitation and emission wavelengths at 584 nm and 620 nm respectively. Plots were made using averaged readings from duplicated experiments after subtraction of the media control.

C. glabrata ATCC 2001 = type: cell-based, Candida glabrata; details: ATCC 2001, 48 h
Experimental: as §3

MTS cytotoxicity assay [4] = type: cell-based; details: human, HeLa CCL-2 cells
Experimental: (§4) HeLa CCL-2 epithelial adenocarcinoma cells from American Type Culture Collection (ATCC) were maintained in DMEM high glucose media with 4 mM L-glutamine (NyClone) and 100 U/mL penicillin, 100 μg/mL streptomycin (pen/strep) (Life Technologies), and 10% (v/v) inactivated fetal bovine serum (FBS) (NyClone). Cells were grown in 5% CO2 at 37° C. and were detached from the culturing dish at 80% confluency using 0.025% trypsin-EDTA (NyClone) treatment. Peptide influence on the cell viability was estimated by using the MTS assay according to the manufacturer's protocol (MTS, CellTiter96® AQ One Solution Cell Proliferation Assay, Promega) with minor modifications and as described elsewhere (Mishra et al. (2015) RSC Advances 5:59758-59769). In short, cells were cultured in flat bottomed 96 well microtiter plates (Corning Life Science) at a seeding density of 20,000 cells/well. At confluence ˜100% achieved after 20-24 hours of cultivation, the cells were washed twice with 100 μL Dulbecco's Phosphate Buffered Saline (Life Technologies). Further, 90 μL of DMEM media with 10% FBS, pen/step was added before exposure to 10 μL of the peptide solution in the concentration range 12.5-100 μM. Plates were incubated at 37° C. After 1 hour, 10 μL MTS, CellTiter96® was added. Plates were further incubated for another 2 hours at 37° C. and finally, the absorbance was measured on ChroMate® reader (Awareness Technology) at 492 nm. Culture medium and 0.2% SDS were used as negative and positive controls, respectively.

E. coli K12 = type: cell-based, Escherichia coli
Experimental: as §1, §2

S. aureus USA300 [5] = type: cell-based, Staphylococcus aureus; remark: listed apart in the source
Experimental: The minimal bactericidal concentration (MBC) was determined by plating 50 μl of the content in the clear wells of the above MIC assays. MBC was determined on the petri dishes without bacterial colony formation after overnight growth (Wang et al. (2012) Biochemistry 51:653-664).

MTS cytotoxicity assay [6] = type: cell-based; details: human
Experimental: as §4
Human skin HaCaT (immortalized keratinocyte from AddexBio, T0020001) and kidney HEK293 cells were also cultivated for cytotoxicity evaluation of the peptides in a similar manner.

S. aureus V8 protease = target: T1, S. aureus V8 protease (Staphylococcus aureus, UniProt P0C1U8); type: in vitro ADME; details: peptide:protease 40:1, 24 hours, 37° C.
T1 construct: purchased Sigma or Fisher
T1 sequence (P0C1U8 69-336): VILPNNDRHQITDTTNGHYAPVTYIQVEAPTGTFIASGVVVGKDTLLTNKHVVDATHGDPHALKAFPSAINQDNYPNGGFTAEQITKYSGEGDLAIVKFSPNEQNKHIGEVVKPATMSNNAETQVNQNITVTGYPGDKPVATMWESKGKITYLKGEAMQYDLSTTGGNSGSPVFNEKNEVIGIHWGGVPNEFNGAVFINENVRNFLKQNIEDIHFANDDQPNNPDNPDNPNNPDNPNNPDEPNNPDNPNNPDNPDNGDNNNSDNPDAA
Experimental: (§5) When degraded, no peptide band could be detected on a 5% stacking/18% resolving tricine gel after 2-4 hours incubation at 37° C. Briefly, a solution (100 μL) containing 250 μM peptide and 6.25 μM protease (Sigma or Fisher) in 10 mM PBS buffer (pH 8) was incubated at 37° C. (peptide/protease molar ratio, 40:1). Aliquots (10 μL) of the reaction solutions were taken at 0, 6, and 24 hours and immediately mixed with 10 μL of 2× SDS loading buffer followed by boiling for 5 minutes to stop the reaction. […] After electrophoresis, the gel was stained by Brilliant Blue R-250 (Fisher) and destained to view the peptide bands.

proteinase K = target: T2, proteinase K (Parengyodontium album, UniProt P06873); experiment: Peptide stability to proteases (SDS-PAGE); type: in vitro ADME, fungal; details: peptide:protease 40:1, 24 hours, 37° C.
T2 construct: purchased Sigma or Fisher
T2 sequence (P06873 106-384): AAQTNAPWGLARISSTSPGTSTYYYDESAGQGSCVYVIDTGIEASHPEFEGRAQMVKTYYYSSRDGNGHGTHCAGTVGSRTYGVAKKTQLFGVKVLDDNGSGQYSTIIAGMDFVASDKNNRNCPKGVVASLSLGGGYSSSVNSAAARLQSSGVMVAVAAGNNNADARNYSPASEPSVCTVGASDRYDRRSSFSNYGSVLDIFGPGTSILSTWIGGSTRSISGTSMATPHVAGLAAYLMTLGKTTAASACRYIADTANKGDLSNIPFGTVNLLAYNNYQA
Experimental: as §5

E. cloacae B2366-12 = type: cell-based, Enterobacter cloacae; details: B2366-12
Experimental: (§6) Bacterial strains used in this study included Enterococcus faecium ATCC51559, Staphylococcus aureus USA300 LAC, Klebsiella pneumoniae ATCC 13883, Acinetobacter baumannii B2367-12, Pseudomonas aeruginosa PAO1, Enterobacter cloacae B2366-12 and Escherichia coli ATCC 25922, wherein the first six constituting the ESKAPE pathogens. Tryptic soy broth (TSB) for bacterial growth was obtained from BD Bioscience (Sparks, Md.).
(§7) The antibacterial activity of peptides was evaluated using a standard broth microdilution protocol as described (Wang et al. (2012) Antimicrob. Agents Chemother., 56:845-856). In brief, 5 μl of each bacterium (stored at −80° C.) were inoculated into TSB medium (2 ml) and grown overnight. A second inoculation was made in the morning by delivering 10 μl of the overnight culture to a fresh TSB medium. After 2-3 hours growth at 37° C., 225 rpm, logarithmic phase bacterial cultures (OD600≈0.5) were diluted and partitioned into a 96-well polystyrene microplate with ˜10^5 colony forming units (CFU) per well (90 μl aliquots). After treatment with 10 μl of peptide solutions at various concentrations, microplates were incubated at 37° C. overnight and read on a ChroMate® 4300 Microplate Reader at 630 nm (GMI, Ramsey, Minn.). The medium was used as a blank where no bacteria should grow.

E. coli ATCC 25922 = type: cell-based, Escherichia coli; details: ATCC 25922
Experimental: as §6, §7

S. aureus USA300 LAC = type: cell-based, Staphylococcus aureus; details: USA300
Experimental: as §6, §7

A. baumannii B2367-12 = type: cell-based, Acinetobacter baumannii; details: B2367-12
Experimental: as §6, §7

P. aeruginosa PAO1 = type: cell-based, Pseudomonas aeruginosa
Experimental: as §6, §7

E. faecium ATCC51559 = type: cell-based, Enterococcus faecium; details: ATCC51559
Experimental: as §6, §7

ESKAPE pathogens = type: cell-based
Experimental: as §6, §7

CC[C@H](C)[C@H](NC(=O)[C@H](CCCCN)NC(=O)[C@H](CCCCN)NC(=O)[C@H](CC(C)C)NC(=O)[C@H](Cc1c[nH]c2ccccc12)NC(=O)[C@H](Cc1c[nH]c2ccccc12)NC(=O)[C@@H](N)Cc1c[nH]c2ccccc12)C(=O)N[C@@H](Cc1c[nH]c2ccccc12)C(N)=O [TetraF2W-KK, WWWLKKIW] (H-WWWLKKIW-NH2; N-terminus and C-terminus assumed)
Antimicrobial activity (MIC) 150 mM NaCl (S. aureus USA300 [1]; USA300): 3.1 to 6.2 µM
Antimicrobial activity (MIC) USA300 (S. aureus USA300 [1]; USA300): 3.1 to 6.2 µM
MIC S. aureus USA300 (S. aureus USA300 [1]; USA300): 3.1 to 6.2 µM
Antimicrobial activity (MIC) pH 6.8 (S. aureus USA300 [1]; USA300, pH 6.8): 12.5 μM
Antimicrobial activity (MIC) Normal medium (pH 7.4) (S. aureus USA300 [1]; USA300, pH 7.4): 3.1-6.2 μM
Antimicrobial activity (MIC) pH 8 (S. aureus USA300 [1]; USA300, pH 8): 3.1 μM
Antimicrobial activity (MIC) Newman (S. aureus Newman): 6.2 µM
Antimicrobial activity (MIC) Mu50 (S. aureus Mu50): 6.2 µM
Antimicrobial activity (MIC) UAMS-1 (S. aureus UAMS-1): 6.2 µM
CC50 at 1 hour (Hemolytic assay; chicken, read-out: LC50 Chicken RBCs): 50 µM
CC50 at 1 hour (Hemolytic assay; human, read-out: LC50 Human RBCs): 40 µM
CC50 at 1 hour (Hemolytic assay; pig, read-out: LC50 Porcine RBCs): 55 µM
MIC S. epidermidis 1457 (S. epidermidis 1457): 6.2 µM (≈ 7.72 µg/mL)
MIC Candida tropicalis (C. tropicalis ATCC 13803): 1.6 µM (≈ 1.99 µg/mL)
MIC B. subtilis 168 (B. subtilis 168): 6.2 µM (≈ 7.72 µg/mL)
MIC Candida albicans [2]: 6.2 µM (≈ 7.72 µg/mL)
propidium iodide fluorescence change after treatment (S. aureus USA300 [3]): least potent
MIC Candida glabrata (C. glabrata ATCC 2001): 6.2 to 12.5 µM
CC50 at 1 hour (MTS cytotoxicity assay [4]): 70 µM
MIC E. coli K12 (E. coli K12; K12): 12.5 to 25 µM
MBC S. aureus USA300 (S. aureus USA300 [5]): > 25 µM
MBC S. aureus USA300 (S. aureus USA300 [5]; USA300): >25 µM
CC50 at 1 hour (MTS cytotoxicity assay [6]; HEK293 cells): 50 µM
CC50 at 1 hour (MTS cytotoxicity assay [6]; HaCaT cells): 50 µM

CC[C@@H](C)[C@@H](NC(=O)[C@@H](CCCCN)NC(=O)[C@@H](CCCNC(=N)N)NC(=O)[C@@H](CC(C)C)NC(=O)[C@@H](Cc1c[nH]c2ccccc12)NC(=O)[C@@H](Cc1c[nH]c2ccccc12)NC(=O)[C@H](N)Cc1c[nH]c2ccccc12)C(=O)N[C@H](Cc1c[nH]c2ccccc12)C(N)=O [TetraF2W-RK-d, wwwlrkiw] (H-[dW][dW][dW][dL][dR][dK][dI][dW]-NH2; N-terminus and C-terminus assumed)
MIC S. aureus USA300 (S. aureus USA300 [1]; USA300): 3.1 µM (≈ 3.94 µg/mL)
stability to S. aureus V8 protease (S. aureus V8 protease): remained stable
MIC S. epidermidis 1457 (S. epidermidis 1457): 6.2 µM (≈ 7.89 µg/mL)
MIC B. subtilis 168 (B. subtilis 168): 3.1 µM (≈ 3.94 µg/mL)
MIC E. coli K12 (E. coli K12): 6.2 µM (≈ 7.89 µg/mL)
MIC E. coli K12 (E. coli K12; K12): 6.2 µM (≈ 7.89 µg/mL)
MBC S. aureus USA300 (S. aureus USA300 [5]; USA300): 12.5 µM (≈ 15.9 µg/mL)
stability to fungal proteinase K (proteinase K): remained stable

CC[C@H](C)[C@H](NC(=O)[C@H](CCCNC(=N)N)NC(=O)[C@H](CCC(N)=O)NC(=O)[C@@H](NC(=O)[C@@H](NC(=O)[C@H](CCCNC(=N)N)NC(=O)[C@H](CCCCN)NC(=O)[C@@H](N)Cc1ccccc1)[C@@H](C)CC)C(C)C)C(=O)N[C@@H](CCCCN)C(=O)N[C@@H](CC(=O)O)C(=O)N[C@@H](Cc1ccccc1)C(=O)N[C@@H](CC(C)C)C(=O)N[C@@H](CCCNC(=N)N)C(=O)N[C@@H](CC(N)=O)C(=O)N[C@@H](CC(C)C)C(=O)N[C@H](C(N)=O)C(C)C [FK-16, FKRIVQRIKDFLRNLV, reference compound] (H-FKRIVQRIKDFLRNLV-NH2; N-terminus and C-terminus assumed)
MIC ECl (E. cloacae B2366-12): 12.5 ± 0 µM (≈ 25.6 µg/mL)
MIC EC (E. coli ATCC 25922): 4.67 ± 2.2 µM (≈ 9.55 µg/mL)
MIC SA (S. aureus USA300 LAC): 4.67 ± 1.8 µM (≈ 9.55 µg/mL)
MIC AB (A. baumannii B2367-12): 4.67 ± 2.2 µM (≈ 9.55 µg/mL)
MIC PA (P. aeruginosa PAO1): 50 µM (≈ 102 µg/mL)
MIC EF (E. faecium ATCC51559): 3.1 ± 0 µM (≈ 6.34 µg/mL)
MIC range against almost all / most of the tested strains (ESKAPE pathogens): 3.1 to 12.5 µM
